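Five compound concentrations were applied to cells in 96-well plates for 48 hours; endpoints were derived by simple linear interpolation of the resulting dose-response curve. The concentration for 50% growth inhibition is given as GI50. TGI: total growth inhibition.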
What was measured:
Test in all cases: inhibition of tumour cell growth, NCI panel, 48 h
NCI-H23 lung = test system: NCI-H23 lung
HS 578T breast = test system: HS 578T breast
UO-31 renal = test system: UO-31 renal
M14 melanoma = test system: M14 melanoma
ACHN renal = test system: ACHN renal
NCI/ADR-RES ovarian = test system: NCI/ADR-RES ovarian
NCI-H460 lung = test system: NCI-H460 lung
CCRF-CEM leukemia = test system: CCRF-CEM leukemia
COLO 205 colon = test system: COLO 205 colon
BT-549 breast = test system: BT-549 breast
HCC-2998 colon = test system: HCC-2998 colon
OVCAR-4 ovarian = test system: OVCAR-4 ovarian
SK-OV-3 ovarian = test system: SK-OV-3 ovarian
LOX IMVI melanoma = test system: LOX IMVI melanoma
SNB-19 CNS = test system: SNB-19 CNS
SK-MEL-5 melanoma = test system: SK-MEL-5 melanoma
SF-268 CNS = test system: SF-268 CNS
OVCAR-8 ovarian = test system: OVCAR-8 ovarian
NCI-H226 lung = test system: NCI-H226 lung
K-562 leukemia = test system: K-562 leukemia
RPMI-8226 leukemia = test system: RPMI-8226 leukemia
DU-145 prostate = test system: DU-145 prostate
CAKI-1 renal = test system: CAKI-1 renal
NCI-H522 lung = test system: NCI-H522 lung
SNB-75 CNS = test system: SNB-75 CNS
HT29 colon = test system: HT29 colon
HCT-116 colon = test system: HCT-116 colon
UACC-257 melanoma = test system: UACC-257 melanoma
SF-539 CNS = test system: SF-539 CNS
A498 renal = test system: A498 renal
RXF 393 renal = test system: RXF 393 renal
OVCAR-3 ovarian = test system: OVCAR-3 ovarian
SN12C renal = test system: SN12C renal
U251 CNS = test system: U251 CNS
MDA-MB-231 breast = test system: MDA-MB-231 breast
PC-3 prostate = test system: PC-3 prostate
HOP-62 NSCLC = test system: HOP-62 NSCLC
TK-10 renal = test system: TK-10 renal
A549 NSCLC = test system: A549 NSCLC
UACC-62 melanoma = test system: UACC-62 melanoma
MOLT-4 leukemia = test system: MOLT-4 leukemia
MCF7 breast = test system: MCF7 breast
MDA-MB-435 = test system: MDA-MB-435
SF-295 CNS = test system: SF-295 CNS
SK-MEL-2 melanoma = test system: SK-MEL-2 melanoma
SK-MEL-28 melanoma = test system: SK-MEL-28 melanoma
SW-620 colon = test system: SW-620 colon
HCT-15 colon = test system: HCT-15 colon
T-47D breast = test system: T-47D breast
786-0 renal = test system: 786-0 renal
HOP-92 NSCLC = test system: HOP-92 NSCLC
IGROV1 ovarian = test system: IGROV1 ovarian
KM12 colon = test system: KM12 colon
EKVX NSCLC = test system: EKVX NSCLC
OVCAR-5 ovarian = test system: OVCAR-5 ovarian

With `CC(=O)O[C@H]1[C@@H]2OC(=O)C3(CC3)C2C[C@H]2O[C@]2(C)CC/C=C(\C)CCC[C@@H]1C` (stereo not given in full) the GI50 (NCI-H23 lung) was 22.1 µM, the TGI (NCI-H23 lung) was > 100 µM and the GI50 (HS 578T breast) was 19 µM. For the same compound, the TGI (HS 578T breast) was 50.2 µM, the GI50 (UO-31 renal) was 25.5 µM and the TGI (UO-31 renal) was 64.2 µM. The GI50 (M14 melanoma) was 19.1 µM, the TGI (M14 melanoma) was 43.6 µM and the GI50 (ACHN renal) was 21 µM. For the same compound, the TGI (ACHN renal) was 44.2 µM, the GI50 (NCI/ADR-RES ovarian) was 23.3 µM and the TGI (NCI/ADR-RES ovarian) was 67.5 µM. It also gave a GI50 (NCI-H460 lung) of 24.6 µM, a TGI (NCI-H460 lung) of 58.2 µM and a GI50 (CCRF-CEM leukemia) of 17.2 µM. For the same compound, the TGI (CCRF-CEM leukemia) was 37.8 µM, the GI50 (COLO 205 colon) was 34 µM and the TGI (COLO 205 colon) was > 100 µM. It also gave a GI50 (BT-549 breast) of 18.7 µM, a TGI (BT-549 breast) of 46.2 µM and a GI50 (HCC-2998 colon) of 19.8 µM. For the same compound, the TGI (HCC-2998 colon) was 50.9 µM, the GI50 (OVCAR-4 ovarian) was 38 µM and the TGI (OVCAR-4 ovarian) was > 100 µM. For the same compound, the GI50 (SK-OV-3 ovarian) was 80.5 µM, the TGI (SK-OV-3 ovarian) was > 100 µM and the GI50 (LOX IMVI melanoma) was 15.8 µM. For the same compound, the TGI (LOX IMVI melanoma) was 46.2 µM, the GI50 (SNB-19 CNS) was 62.4 µM and the TGI (SNB-19 CNS) was > 100 µM. For the same compound, the GI50 (SK-MEL-5 melanoma) was 14.8 µM, the TGI (SK-MEL-5 melanoma) was 29 µM and the GI50 (SF-268 CNS) was 27.7 µM. For the same compound, the TGI (SF-268 CNS) was > 100 µM, the GI50 (OVCAR-8 ovarian) was 27.8 µM and the TGI (OVCAR-8 ovarian) was > 100 µM. It also gave a GI50 (NCI-H226 lung) of 24.1 µM, a TGI (NCI-H226 lung) of 66.5 µM and a GI50 (K-562 leukemia) of 14.3 µM. For the same compound, the TGI (K-562 leukemia) was 37.7 µM, the GI50 (RPMI-8226 leukemia) was 23.8 µM and the TGI (RPMI-8226 leukemia) was 55.2 µM. The GI50 (DU-145 prostate) was 19.6 µM, the TGI (DU-145 prostate) was 39.1 µM and the GI50 (CAKI-1 renal) was 19.8 µM. The TGI (CAKI-1 renal) was 42.1 µM, the GI50 (NCI-H522 lung) was 21.1 µM and the TGI (NCI-H522 lung) was 48.4 µM. For the same compound, the GI50 (SNB-75 CNS) was 38.1 µM, the TGI (SNB-75 CNS) was > 100 µM and the GI50 (HT29 colon) was 36.8 µM. The TGI (HT29 colon) was > 100 µM, the GI50 (HCT-116 colon) was 15.7 µM and the TGI (HCT-116 colon) was 37.3 µM. The GI50 (UACC-257 melanoma) was 43.4 µM, the TGI (UACC-257 melanoma) was > 100 µM and the GI50 (SF-539 CNS) was 23.3 µM. The TGI (SF-539 CNS) was 50.8 µM, the GI50 (A498 renal) was 27.4 µM and the TGI (A498 renal) was > 100 µM. For the same compound, the GI50 (RXF 393 renal) was 14.8 µM, the TGI (RXF 393 renal) was 37.7 µM and the GI50 (OVCAR-3 ovarian) was 17.5 µM. For the same compound, the TGI (OVCAR-3 ovarian) was 32.9 µM, the GI50 (SN12C renal) was 22.7 µM and the TGI (SN12C renal) was 49.7 µM. The GI50 (U251 CNS) was 22.6 µM, the TGI (U251 CNS) was 49.9 µM and the GI50 (MDA-MB-231 breast) was 20.5 µM. The TGI (MDA-MB-231 breast) was 48.7 µM, the GI50 (PC-3 prostate) was 19 µM and the TGI (PC-3 prostate) was 49.6 µM. For the same compound, the GI50 (HOP-62 NSCLC) was 37.7 µM, the TGI (HOP-62 NSCLC) was > 100 µM and the GI50 (TK-10 renal) was 23.9 µM. For the same compound, the TGI (TK-10 renal) was 46.9 µM, the GI50 (A549 NSCLC) was 20.3 µM and the TGI (A549 NSCLC) was 46 µM. The GI50 (UACC-62 melanoma) was 17.1 µM, the TGI (UACC-62 melanoma) was 46.1 µM and the GI50 (MOLT-4 leukemia) was 18.1 µM. For the same compound, the TGI (MOLT-4 leukemia) was 41.3 µM, the GI50 (MCF7 breast) was 37.1 µM and the TGI (MCF7 breast) was > 100 µM. The GI50 (MDA-MB-435) was 24.2 µM, the TGI (MDA-MB-435) was 54.3 µM and the GI50 (SF-295 CNS) was 40.2 µM. The TGI (SF-295 CNS) was > 100 µM, the GI50 (SK-MEL-2 melanoma) was 19.5 µM and the TGI (SK-MEL-2 melanoma) was 49.5 µM. For the same compound, the GI50 (SK-MEL-28 melanoma) was 36.7 µM, the TGI (SK-MEL-28 melanoma) was > 100 µM and the GI50 (SW-620 colon) was 23.7 µM. For the same compound, the TGI (SW-620 colon) was 55.9 µM, the GI50 (HCT-15 colon) was 26.8 µM and the TGI (HCT-15 colon) was 70 µM. The GI50 (T-47D breast) was 43.7 µM, the TGI (T-47D breast) was > 100 µM and the GI50 (786-0 renal) was 25.8 µM. For the same compound, the TGI (786-0 renal) was 92 µM, the GI50 (HOP-92 NSCLC) was 4.58 µM and the TGI (HOP-92 NSCLC) was 63 µM. It also gave a GI50 (IGROV1 ovarian) of 16.4 µM, a TGI (IGROV1 ovarian) of 45.2 µM and a GI50 (KM12 colon) of 18.4 µM. For the same compound, the TGI (KM12 colon) was 36.5 µM, the GI50 (EKVX NSCLC) was 30.1 µM and the TGI (EKVX NSCLC) was > 100 µM. For the same compound, the GI50 (OVCAR-5 ovarian) was 76.5 µM and the TGI (OVCAR-5 ovarian) was > 100 µM.
